This is an account of results in patent US12678446B2 (PFIZER INC., priority 2020, dated 2026).

In general, EC50 refers to the concentration that produces a half-maximal response. The term CC50 denotes the concentration that lowers cell viability or growth by half.

Data set [1] concerns RSV (RSV A2 ECACC, 0709161v). Nature of the data set: RSV plaque reduction assay. Type of data set: cell-based, respiratory syncytial virus. Particulars: mean of at least two experiments unless noted (n = 1). In outline: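 Hep-G2 monolayers infected with 100 PFU/well RSV A2 premixed with eight serial compound dilutions (2 h, 37° C.), then kept 2 days under CMC overlay with compound in DMEM/2% FBS. Plaques immunostained (HRP/TrueBlue) and counted; % infection versus virus control gives EC50, mean of at least two experiments, rounded.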

In another data set the test system is Hep-G2 cells. Nature of the data set: cell toxicity CC50. To be noted: mean of at least two experiments, read-out: Cell Cytotoxicity CC50. It counts as cell-based.
Another data set in a line: cell toxicity CC50. Type of data set: cell-based. Particulars: human; Hep-G2 cells; mean of at least two experiments; read-out: Cell Cytotoxicity CC50.
The mark [2] stands for this setting: RSV A2 in Hep-G2 cells, read-out: RSV A2 Plaque EC50.
The mark [3] stands for this setting: read-out: RSV A2 Plaque EC50, RSV A2 in Hep-G2 cells.
The mark [4] stands for this setting: human respiratory syncytial virus, HepG2, read-out: RSV A2 Plaque EC50, RSV A2 in Hep-G2 cells.

Read-outs that look alike come from different tables or passages of the source.

Take “(5R)-N-[(3S)-9- fluoro-2-oxo-5- phenyl-1,3-dihydro- 1,4-benzodiazepin-3- yl]-5-methyl-2-[1- (oxan-4-yl)pyrazol- 4-yl]-6,7-dihydro- 5H-pyrazolo[5,1- b][1,3]oxazine-3- carboxamide [Example 111]”: the 50% effective concentration (EC50) in data set [1] (setting [2]) amounted to 0.064 µM. Besides, the CC50 in the data set on Hep-G2 cells was greater than 25 µM.
Taken in the same sequence, the figures for “2-(2,6-Difluorophenyl)-N-[(3S)-9-fluoro-2-oxo-5-phenyl-1,3-dihydro-1,4-benzodiazepin-3-yl]-6,7-dihydro-5H-pyrazolo[5,1-b][1,3]oxazine-3-carboxamide [Example 196]” were 0.025 µM and greater than 25 µM.
In the same order, the values of “2-[2-Fluoro-4- (hydroxymethyl)phe- nyl]-N-[(3S)-9- fluoro-2-oxo-5- phenyl-1,3-dihydro- 1,4-benzodiazepin-3- yl]-6,7-dihydro-5H- pyrazolo[5,1- b][1,3]oxazine-3- carboxamide [Example 134]” are 0.083 µM and greater than 25 µM.
As to `CCNc1ccc(-c2nn3c(c2C(=O)N[C@H]2N=C(c4ccccc4)c4cccc(F)c4NC2=O)OCCC3)c(F)n1` [Example 3, 2-[6-(Ethylamino)-2-fluoropyridin-3-yl]-N-[(3S)-9-fluoro-2-oxo-5-phenyl-1,3-dihydro-1,4-benzodiazepin-3-yl]-6,7-dihydro-5H-pyrazolo[5,1-b][1,3]oxazine-3-carboxamide], the concentration giving a half-maximal response (EC50) in data set [1] (setting [2]) was found to be 0.02 µM. For the same compound, in the data set on Hep-G2 cells, the CC50 is greater than 25 µM.
With `O=C(N[C@H]1N=C(c2ccccc2)c2cccc(F)c2NC1=O)c1c(-c2c(F)cccc2F)nn2c1OC(CO)CC2` (single isomer, unassigned) [Example 189-2, (5S*)-2-(2,6-Difluorophenyl)-N-[(3S)-9-fluoro-2-oxo-5-phenyl-1,3-dihydro-1,4-benzodiazepin-3-yl]-5-(hydroxymethyl)-6,7-dihydro-5H-pyrazolo[5,1-b][1,3]oxazine-3-carboxamide], in data set [1] (setting [3]), the EC50 was found to be 0.072 µM. In the data set with Hep-G2 cells, the cytotoxic concentration (CC50) is greater than 25 µM.
Regarding `O=C(N[C@H]1N=C(c2ccccc2)c2ccccc2NC1=O)c1c(-c2c(F)cccc2F)nn2c1OC(CO)CC2` (single isomer, unassigned) [Example 188-2, (5S*)-2-(2,6-Difluorophenyl)-5-(hydroxymethyl)-N-[(3S)-2-oxo-5-phenyl-1,3-dihydro-1,4-benzodiazepin-3-yl]-6,7-dihydro-5H-pyrazolo[5,1-b][1,3]oxazine-3-carboxamide], the EC50 in data set [1] (setting [3]) came to 0.281 µM. Moreover, in the data set on Hep-G2 cells, the cytotoxic concentration (CC50) was greater than 25 µM.
Regarding “(5R)-N-[(3S)-9- fluoro-2-oxo-5- phenyl-1,3-dihydro- 1,4-benzodiazepin-3- yl]-5-methyl-2-(1- propan-2-ylpyrazol- 4-yl)-6,7-dihydro- 5H-pyrazolo[5,1- b][1,3]oxazine-3- carobxamide [Example 112]”, the EC50 in data set [1] (setting [2]) stood at 0.05 µM. For the same compound, the cytotoxic concentration (CC50) in the data set with Hep-G2 cells is greater than 25 µM.
`O=C(N[C@H]1N=C(c2ccccc2)c2cccc(F)c2NC1=O)c1c(-c2ccccc2F)nn2c1OCC(CO)C2` (single isomer, unassigned) [Example 110-2, (6S*)-N-[(3S)-9-fluoro-2-oxo-5-phenyl-1,3-dihydro-1,4-benzodiazepin-3-yl]-2-(2-fluorophenyl)-6-(hydroxymethyl)-6,7-dihydro-5H-pyrazolo[5,1-b][1,3]oxazine-3-carboxamide]: in data set [1] (setting [3]), the EC50 worked out at 0.061 µM. The CC50 with Hep-G2 cells is greater than 25 µM.
Consider `O=C(N[C@H]1N=C(c2ccccc2)c2cccc(F)c2NC1=O)c1c(-c2ccccc2F)nn2c1OC(CO)CC2` (single isomer, unassigned) [Example 190-2, (5S*)-2-(2-Fluorophenyl)-5-(hydroxymethyl)-N-[(3S)-9-fluoro-2-oxo-5-phenyl-1,3-dihydro-1,4-benzodiazepin-3-yl]-6,7-dihydro-5H-pyrazolo [5,1-b][1,3]oxazine-3-carboxamide], for which the EC50 in data set [1] (setting [3]) was 0.154 µM. Moreover, the CC50 in the data set with Hep-G2 cells is greater than 25 µM.
Take “(5R)-2-(2-Fluoro-6-methylpyridin-3-yl)-5-methyl-N-[(3S)-2-oxo-5-phenyl-1,3-dihydro-1,4-benzodiazepin-3-yl]-6,7-dihydro-5H-pyrazolo[5,1-b][3,1]oxazine-3-carboxamide [Example 72]”: the EC50 in data set [1] (setting [2]) stood at 0.1 µM. The half-maximal cytotoxic concentration (CC50) with Hep-G2 cells was greater than 25 µM.
Regarding `O=C(N[C@H]1N=C(c2ccccc2)c2cccc(F)c2NC1=O)c1c(-c2c(F)cccc2F)nn2c1OCC(CO)C2` (single isomer, unassigned) [Example 129-2, (6S*)-2-(2,6-Difluorophenyl)-N-[(3S)-9-fluoro-2-oxo-5-phenyl-1,3-dihydro-1,4-benzodiazepin-3-yl]-6-(hydroxymethyl)-6,7-dihydro-5H-pyrazolo[5,1-b][1,3]oxazine-3-carboxamide], in data set [1] (setting [3]), the EC50 came out at 0.073 µM. For the same compound, the CC50 in the data set on Hep-G2 cells is greater than 25 µM.
On to “N-[(3S)-9-fluoro-2- oxo-5-phenyl-1,3- dihydro-1,4- benzodiazepin-3-yl]- 2-(2-fluorophenyl)- 6-(methoxymethyl)- 6,7-dihydro-5H- pyrazolo[5,1- b][1,3]oxazine-3- carboxmaide [Example 113]”, for which, in data set [1] (setting [2]), the EC50 was determined as 0.053 µM. In addition, in the data set with Hep-G2 cells, the CC50 was greater than 19.4 µM.
In the case of “(5R)-2-[2-Fluoro-4- (hydroxymethyl)phe- nyl]-N-[(3S)-9- fluoro-2-oxo-5- phenyl-1,3-dihydro- 1,4-benzodiazepin-3- yl]-5-methyl-6,7- dihydro-5H- pyrazolo[5,1- b][1,3]oxazine-3- carboxamide [Example 153]”, the concentration for a half-maximal effect (EC50) in data set [1] (setting [2]) worked out at 0.063 µM. Further, the cytotoxic concentration (CC50) with Hep-G2 cells was greater than 25 µM.
On to “(5R)-2-[1- (Difluoromethyl)pyra- zol-4-yl]-N-[(3S)-9- fluoro-2-oxo-5- phenyl-1,3-dihydro- 1,4-benzodiazepin-3- yl]-5-methyl-6,7- dihydro-5H- pyrazolo[5,1- b][1,3]oxazine-3- carboxamide [Example 120]”, for which the EC50 in data set [1] (setting [2]) amounted to 0.097 µM. Also, in the data set with Hep-G2 cells, the CC50 is greater than 25 µM.
With `O=C(N[C@H]1N=C(c2ccccc2)c2cccc(F)c2NC1=O)c1c(-c2ccccc2F)nn2c1OC(CO)CC2` (stereo partly drawn) [Example 123, N-[(3S)-9-Fluoro-2-oxo-5-phenyl-1,3-dihydro-1,4-benzodiazepin-3-yl]-2-(2-fluorophenyl)-5-(hydroxymethyl)-6,7-dihydro-5H-pyrazolo[5,1-b][1,3]oxazine-3-carboxamide], the concentration giving a half-maximal response (EC50) in data set [1] (setting [2]) stood at 0.079 µM. Also, in the data set with Hep-G2 cells, the CC50 was greater than 25 µM.
For the compound “N-[(3S)-9-fluoro-2- oxo-5-phenyl-1,3- dihydro-1,4- benzodiazepin-3-yl]- 2-(2-fluorophenyl)- 6-(hydroxymethyl)- 6,7-dihydro-5H- pyrazolo[5,1- b][1,3]oxazine-3- carboxamide [Example 110]”, in data set [1] (setting [2]), the concentration giving a half-maximal response (EC50) was found to be 0.051 µM. Moreover, the CC50 with Hep-G2 cells was greater than 25 µM.
On to `[2H]C([2H])([2H])Nc1ccc(-c2nn3c(c2C(=O)N[C@H]2N=C(c4ccccc4)c4cccc(F)c4NC2=O)O[C@H](C)CC3)cn1` [Example 71, (5R)-5-Methyl-N-[(3S)-9-fluoro-2-oxo-5-phenyl-1,3-dihydro-1,4-benzodiazepin-3-yl]-2-[6-(trideuteriomethylamino)pyridin-3-yl]-6,7-dihydro-5H-pyrazolo[5,1-b][1,3]oxazine-3-carboxamide], for which, in data set [1] (setting [4]), the EC50 is 0.091 µM. The CC50 in “cell toxicity CC50” was greater than 25 µM.
`CCS(=O)(=O)N1CCC(c2nn3c(c2C(=O)N[C@H]2N=C(c4ccccc4)c4cccc(F)c4NC2=O)O[C@H](C)CC3)CC1` [Example 201, (5R)-2-(1-Ethylsulfonylpiperidin-4-yl)-N-[(3S)-9-fluoro-2-oxo-5-phenyl-1,3-dihydro-1,4-benzodiazepin-3-yl]-5-methyl-6,7-dihydro-5H-pyrazolo[5,1-b][1,3]oxazine-3-carboxamide]: the EC50 in data set [1] (setting [4]) stood at 0.049 µM. For the same compound, in the data set “cell toxicity CC50”, the half-maximal cytotoxic concentration (CC50) is greater than 25 µM.
Taken in the same sequence, the figures for `C[C@@H]1CCn2nc(C3CCCCC3)c(C(=O)N[C@H]3N=C(c4ccccc4)c4cccc(F)c4NC3=O)c2O1` [Example 114, (5R)-2-Cyclohexyl-N-[(3S)-9-fluoro-2-oxo-5-phenyl-1,3-dihydro-1,4-benzodiazepin-3-yl]-5-methyl-6,7-dihydro-5H-pyrazolo[5,1-b][1,3]oxazine-3-carboxamide] were 0.117 µM and 17.1 µM.
With `O=C(N[C@H]1N=C(c2ccccc2)c2cccc(F)c2NC1=O)c1c(-c2ccc(F)cc2F)nn2c1SCCC2` [Example 34, 2-(2,4-Difluorophenyl)-N-[(3S)-9-fluoro-2-oxo-5-phenyl-2,3-dihydro-1H-1,4-benzodiazepin-3-yl]-5H,6H,7H-pyrazolo[3,2-b][1,3]thiazine-3-carboxamide], the 50% effective concentration (EC50) in data set [1] (setting [4]) was determined as 0.143 µM. Besides, in “cell toxicity CC50”, the CC50 is greater than 25 µM.
Take `C[C@@H]1CCn2nc(-c3cnn(CCO)c3)c(C(=O)N[C@H]3N=C(c4ccccc4)c4cccc(F)c4NC3=O)c2O1` [Example 117, (5R)-N-[(3S)-9-fluoro-2-oxo-5-phenyl-1,3-dihydro-1,4-benzodiazepin-3-yl]-2-[1-(2-hydroxyethyl)pyrazol-4-yl]-5-methyl-6,7-dihydro-5H-pyrazolo[5,1-b][1,3]oxazine-3-carboxamide]: in data set [1] (setting [4]), the 50% effective concentration (EC50) worked out at 0.434 µM. In addition, the CC50 in “cell toxicity CC50” was greater than 25 µM.
For `COC1CN(c2ccc(-c3nn4c(c3C(=O)N[C@H]3N=C(c5ccccc5)c5cccc(F)c5NC3=O)O[C@H](C)CC4)cn2)C1` [Example 144, (5R)-N-[(3S)-9-fluoro-2-oxo-5-phenyl-1,3-dihydro-1,4-benzodiazepin-3-yl]-2-[6-(3-methoxyazetidin-1-yl)pyridin-3-yl]-5-methyl-6,7-dihydro-5H-pyrazolo[5,1-b][1,3]oxazine-3-carboxamide], the EC50 in data set [1] (setting [4]) came to 0.101 µM. For the same compound, in “cell toxicity CC50”, the cytotoxic concentration (CC50) is greater than 25 µM.
